Molecules are shown by their SMILES. Read-outs that look alike come from different tables or passages of the source.

For data set [1], the system named is G. mellonella larvae. To be noted: in vivo. The method, then:
The larvae were used within two weeks of arrival. […] Larvae in a weight range between 0.2-0.3 g and light cream in colour were selected for experiments. […] The injection was performed into the right foreleg.
Using the “bath” method, different lengths of time for decontamination were tested. Using sterile tweezers each larvae was rolled in 20 ml of 50% ethanol for 10 s, 20 s, 30 s or 60 s, patted dry with blue roll and dipped in sterile PBS. The PBS was plated on LB agar; plates and G. mellonella larvae were incubated at 37° C. for 24 h. The health of larvae was monitored and contaminants on the plates counted.
Further concentrations and decontamination treatment periods were studied. In each case, ten Galleria larvae were used, placed into a sterile mesh tray and immersed using the “dip” method into isopropyl alcohol, methanol or ethanol, prepared to varying concentrations by dilution with sterile water as described above. The treatment conditions were:
These contaminants can be introduced into the larva haemolymph through the injection point when challenging larvae. We believe that the deaths we have seen in past experiments in control groups challenged with PBS was a consequence of the introduction of this microbial flora into the body cavity of the larvae. Deaths in control groups can make the interpretation of results from test groups difficult. Therefore, the plan in this study was to identify a way of surface decontaminating the larvae, so that deaths in control groups were avoided, and therefore improving the quality of the data obtained from experiments using G. mellonella larvae. Galleria larvae are scored as dead when there is no movement when gently probed with a pipette tip. Colour is also an indicator of a response to infection or injury as such larvae produce melanin which creates a colour change of cream to pale or dark brown (4).

Data set [2] deals with culturable microorganisms on the surface of G. mellonella larvae. Put plainly: Measurement of surface contamination of larvae after alcohol decontamination (PBS wash plated on LB agar). The data set is classed as cell-based. To be noted: for percentage reduction in surface contaminants compared to control: n=10 (FIG. 1). The method, then: Individual G. mellonella larva from groups of 10 were immersed thrice into 1 ml of PBS using sterilised forceps. The PBS wash was serially diluted, plated onto Luria Broth (LB) agar and incubated at 37° C. for 24 h. Any colonies of organisms visible after this period were counted. They may optionally be identified to species level, for example by use of 16S RNA sequencing. Ethanol was diluted with sterile water to 70% or 50% (v/v). We tested two different decontamination techniques. […] To assess the microbial flora after decontamination, we used the PBS washing method outlined above. Using the “bath” method, different lengths of time for decontamination were tested. […] The PBS was plated on LB agar; plates and G. mellonella larvae were incubated at 37° C. for 24 h. The health of larvae was monitored and contaminants on the plates counted. Further concentrations and decontamination treatment periods were studied. In each case, ten Galleria larvae were used, placed into a sterile mesh tray and immersed using the “dip” method into isopropyl alcohol, methanol or ethanol, prepared to varying concentrations by dilution with sterile water as described above. The treatment conditions were: Larvae were patted dry on paper towel and grasped with sterile forceps dip larvae individually into PBS three times, for measurement of surface contamination as described above.

In data set [3] the test system is G. mellonella larvae. To be noted: single 20 s bath exposure to 50% (v/v), 24 hours.
Description: Final instar G. mellonella larvae were obtained from Live Foods UK and kept on woodchip at 15° C. until use. The larvae were used within two weeks of arrival. The Galleria larvae were screened for colour, weight and size before use. Larvae in a weight range between 0.2-0.3 g and light cream in colour were selected for experiments. Injections were carried out using a Hamilton syringe with 5 μl dispenser; 10 μl of inoculum was used per larva in each injection. The injection was performed into the right foreleg. Phosphate Buffer Saline (PBS, pH 7.2) was used as a control inoculum as it should not kill or harm the larvae.
We injected larvae with PBS before or after decontamination. […] For the second group, only 10 μl PBS was injected into the right foreleg, with no preliminary decontamination. All larvae were placed into an incubator at 37° C. for 24 h and monitored for health and survival.
Finally, we investigated whether decontamination of the larvae improved the survival of larvae which were subsequently injected with PBS. […] These larvae were dried and then injected 10 μl PBS into the right foreleg. The larvae were placed at 37° C. and survival recorded over the next 24 hours.

As for `CCO` [Ethanol, ethanol], the “larval survival 24 hrs” value in data set [1] (Galleria mellonella, 40 %) is 10/10; in data set [1] (Galleria mellonella, 50 %) it was 10/10; in data set [1] (Galleria mellonella, 60 %), 10/10. Moreover, the “larval survival 48 hrs” value is recorded as 10/10 in data set [1] (Galleria mellonella, 48 h, 40 %) and 10/10 in data set [1] (Galleria mellonella, 48 h, 50 %). Besides, the “Observations at 48 h (death)” value in data set [1] (Galleria mellonella, 48 h, 50 % (v/v)) is 15% death. Also, the “larval survival 72 hrs” value in data set [1] (Galleria mellonella, 40 %) is 10/10; in data set [1] (Galleria mellonella, 50 %), 10/10. Also, the “Observations at 48 h” value in data set [1] is reported as “No death or pigment change”. Moreover, the “% reduction in microbial surface contamination” value (shortened to “% reduction”) is reported as 95.7% in data set [2] (40%, 20 s immersion (dip)); 99.2% in data set [2] (40%, 40 s immersion (dip)); 99.0% in data set [2] (50%, 20 s immersion (dip)); 98.9% in data set [2] (50%, 40 s immersion (dip)); 99.4% in data set [2] (50%, 50 s immersion (dip)); 98.4% in data set [2] (60%, 20 s immersion (dip)). The “% reduction” value in data set [2] (60%, 40 s immersion (dip)) is reported as 99.1%. Further, the “percentage reduction in surface contaminants compared to control” value in data set [2] (50% ethanol, bath technique) was 99.99%; in data set [2] (50% ethanol, dip technique) it was 99.99%; in data set [2] (70% ethanol, bath technique), 99.98%; in data set [2] (70% ethanol, dip technique), 99.52%. Moreover, the “groups of larvae with 100% survival after PBS injection” value in data set [3] (10 μl PBS into right foreleg, 37° C., groups of 10) is given as 19/20. In data set [3] (PBS injection), the “reduction in deaths versus un-decontaminated larvae injected with PBS” value was determined as 83%.

For the compound `CC(C)O` [Isopropyl alcohol, isopropanol], the “% reduction” value in data set [2] (50%, 20 s immersion (dip)) was 99.9%; in data set [2] (50%, 40 s immersion (dip)) it was 99.9%; in data set [2] (70%, 20 s immersion (dip)) it was 99.9%; in data set [2] (70%, 40 s immersion (dip)), 99.8%.

Consider `CO` [Methanol, methanol], for which the “% reduction” value in data set [2] (50%, 20 s immersion (dip)) was 99.0%; in data set [2] (50%, 40 s immersion (dip)), 99.7%; in data set [2] (70%, 20 s immersion (dip)), 99.9%; in data set [2] (70%, 40 s immersion (dip)), 99.9%.

The values are drawn from US10683121B2, “Method for preparation of research organisms” (BIOSYSTEMS TECHNOLOGY LIMITED, priority 2015, dated 2020).
